In patent US20200170247A1, “HAND DISINFECTANTS” (priority 2014, published 2020):

System: microbial load on the hands
Assay: hand disinfectant experiment according to EN 1500
Assay type: in vivo
Conditions: EN 1500, six samples per product; reference 60% 2-propanol (vol/vol)
Text: The state of the art for hand disinfectants is described by the test methods, in which an agent is examined in regard to its efficiency. Currently, all agents, which are to be approved for hygienic hand disinfection have to be examined according to standard EN1500. The EN 1500 uses as a microbicidal reference substance 60% 2-propanol (vol/vol) in water. […] In these cases, the effectiveness of alcoholic hand disinfectants with or without the addition of quaternary ammonium compounds is more or less the same. It has also been known that products are possible, which contain as an active agent about 4% of a quaternary ammonium compound or a guanidine and contain, apart from this compound, solubilizers like propylene glycol, butylene glycol and other polyalcohols, so that the products have a degreasing effect on the skin. Unfortunately, all of these products were effective only according to the new standards EN 1499, hand decontamination, which have to meet less stringent requirements than the EN 1500. Agents, which only have to meet the requirements of the EN1499 have to be better than soap in a comparative test. Whereas for passing the EN 1500, in general, a microbial reduction of 4.5 log increments (i.e., a 4.5 log reduction) is required, passing the EN 1499 in general requires 3 log increments (i.e., a 3 log reduction). This is only 3% of the reduction required by the EN 1500. […]

With `CC(C)O` [60% 2-propanol (vol/vol), 2-propanol] as the compound, how does the Reduction factor read?
Its Reduction factor is 4.1-4.6.
